Measurements taken from the NIST ThermoML archive (doi:10.1016/j.tca.2010.05.009).
± gives the expanded uncertainty stated by the source.

Details: Crystal; Differential scanning calorimeter

Normal melting temperature: 75.1 ± 1 °C
Compound: CC(C)Cc1ccc(C(C)C(=O)O)cc1 (stereo unspecified) [ibuprofen]
